# Source: patent US20260159500A1, “KINESIN KIF18A INHIBITOR AND USE THEREOF” (SHANGHAI APEIRON THERAPEUTICS COMPANY LIMITED, priority 2022, published 2026)
# pIC50: −log10 of the molar value.
# Legend:
# [1] = biological target: T1, Human KIF18A (amino acid sequence 1-417) (Homo sapiens, UniProt Q8NI77); assay: Enzymatic activity test (ADP-Glo, microtubule-stimulated KIF18A ATPase); type: biochemical; conditions: 60 μg/mL microtubules, 25 μM ATP, 2.5 nM KIF18A protein, 120 min at ambient temperature, read-out: KIF18A_nM
# T1 construct: purchased Viva Biotech (Shanghai) Ltd
# T1 sequence (Q8NI77 1-417): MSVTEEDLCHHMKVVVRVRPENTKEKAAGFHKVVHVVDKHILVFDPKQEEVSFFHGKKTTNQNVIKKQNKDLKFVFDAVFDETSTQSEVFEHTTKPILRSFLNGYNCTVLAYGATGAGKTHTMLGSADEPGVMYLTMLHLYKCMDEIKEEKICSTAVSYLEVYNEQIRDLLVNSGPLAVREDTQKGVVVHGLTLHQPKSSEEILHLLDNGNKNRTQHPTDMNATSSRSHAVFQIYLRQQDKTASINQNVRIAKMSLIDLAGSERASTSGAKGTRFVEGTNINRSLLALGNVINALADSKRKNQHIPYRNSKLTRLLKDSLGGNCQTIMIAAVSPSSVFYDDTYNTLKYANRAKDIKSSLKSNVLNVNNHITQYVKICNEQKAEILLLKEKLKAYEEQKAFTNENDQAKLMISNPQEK
# Description: Human KIF18A (amino acid sequence 1-417) was purchased from Viva Biotech (Shanghai) Ltd.; the ADP-Glo™ protein kinase kit was acquired from Promega, USA; tubulin was sourced from Cytoskeleton, USA; and the 384-well assay plate and Envision multifunctional microplate reader were obtained from PerkinElmer, USA.
# Dissolve the compound powder in DMSO to prepare a stock solution of 10 mM. Then perform gradient dilution for the compounds in the microplate to achieve a final concentration of 0-10 μM. Then, add 2.5 μL each of tubulin, compound, ATP, and KIF18A protein to the microplate in sequence for reaction at ambient temperature for 120 min. The final concentrations in the enzyme reaction are 60 μg/mL for microtubules, 25 μM for ATP, and 2.5 nM for KIF18A protein. After the enzyme reaction, add 10 μL of ADP-GLO reaction reagent to each well and incubate at ambient temperature for 30 min. After that, add 20 μL of detection reagent to each well and incubate at ambient temperature for 30 min in the dark. Finally, perform chemiluminescence detection using the PerkinElmer Envision.
# OVCAR3 cells = assay: Cell proliferation activity test in OVCAR3 cells (CyQUANT Direct); type: cell-based; conditions: Homo sapiens, OVCAR-3, 72 h, 3 days incubation, CyQUANT fluorescence detection, read-out: OVCAR-3_IC50_nM
# Description: OVCAR3 cells were purchased from Nanjing Cobioer Biosciences Co., Ltd. RPMI-1640 medium, fetal bovine serum, and the CyQUANT Direct Cell Proliferation Assay kit were purchased from Thermo Fisher Scientific, USA; 96-well cell culture plates were sourced from Corning, USA.
# Culture OVCAR3 cells with RPMI-1640 medium containing 10% fetal bovine serum and incubate them in a 5% CO2 incubator at 37° C. Only cells in the logarithmic growth phase can be used for the test.
# Inoculate OVCAR3 cells into a 96-well cell culture plate at 90 μL per well and incubate overnight in a 5% CO2 incubator at 37° C. Dissolve the compound powder in DMSO to prepare a stock solution of 10 mM. Then perform gradient dilution for the compounds in the microplate to achieve a final concentration of 0-10 μM. Add 10 μL of cell culture medium containing compounds to each well to make the final DMSO content 0.2%. Incubate the cell plates in a 5% CO2 incubator at 37° C. for 3 days. Add 100 μL of CyQUANT detection reagent to each well, react at 37° C. for 60 min, and perform fluorescence detection using the PerkinElmer Envision.
# HT29 cells = assay: CyQuant cell proliferation activity test in HT29 cells; type: cell-based; conditions: Homo sapiens, HT-29, 72 h, 2000 cells per well, 3 days incubation, IC50 by XLFIT, read-out: HT29_IC50_nM
# Description: HT29 cells were purchased from Nanjing Cobioer Biosciences Co., Ltd.; RPMI-1640 medium, fetal bovine serum, Trypsin-EDTA (0.25%), 96-well plates, and CyQuant reagents were purchased from ThermoFisher (USA); DMSO was purchased from SIGMA (USA).
# Culture HT29 cells with RPMI-1640 containing 10% fetal bovine serum under the condition of 37° C. and 5% CO2. Only cells in the logarithmic growth phase can be used for the test.
# Use the CyQuant reagent to detect the proliferation inhibitory activity of compounds on HT29 cells. Adjust the cell density and inoculate 100 μL per well into the 96-well plate (HT29 at 2000 cells per well), then incubate overnight under the condition of 37° C. and 5% CO2. Add compounds of various target concentrations (initial concentration of 3000 nM, 3-fold dilution, 9 concentration gradients), and make the DMSO content 0.2%. Incubate the cell plates at 37° C. and 5% CO2 for 3 days. Incubate with CyQuant reagent for 1 h, read the plate by Envision, and calculate IC50 using XLFIT.
pIC50 [1],pIC50 (OVCAR3 cells),pIC50 (HT29 cells),SMILES
7.34,7.59,8.05,"O=C(Nc1cc2ccsc2c(N2CCC(F)(F)CC2)n1)c1ccc(NS(=O)(=O)CCO)cc1N1CCC2(CC1)CC2 [Example 28, N-(7-(4,4-difluoropiperidin-1-yl)thieno[2,3-c]pyridin-5-yl)-4-(2-hydroxyethylsulfonamido)-2-(6-azaspiro[2.5]octan-6-yl)benzamide]"
7.20,6.78,6.35,Cn1cnc2cc(NC(=O)c3ccc(NS(=O)(=O)CCO)cc3N3CCC4(CC3)CC4)nc(N3CCC(F)(F)CC3)c21 [Example 34]
7.41,7.19,7.21,Cn1ncc2c(N3CCC(F)(F)CC3)nc(NC(=O)c3ccc(NS(=O)(=O)CCO)cc3N3CCC4(CC3)CC4)cc21 [Example 36]
7.42,7.82,7.74,O=C(Nc1cc2nsnc2c(N2CCC(F)(F)CC2)n1)c1ccc(NS(=O)(=O)CCO)cc1N1CCC2(CC1)CC2 [Example 39]
6.67,8.15,7.77,"Nc1nc2c(N3CCC(F)(F)CC3)c(F)c(NC(=O)c3ccc(NS(=O)(=O)CCO)cc3N3CCC4(CC3)CC4)cc2s1 [Example 42, N-[2-amino-4-(4,4-difluoropiperidin-1-yl)-5-fluoro-1,3-benzothiazol-6-yl]-2-{6-azaspiro[2.5]octan-6-yl}-4-(2-hydroxyethanesulfonamido)benzamide]"
7.54,8.15,7.77,"O=C(Nc1cc2c(c(N3CCC(F)(F)CC3)n1)C(=O)NCC2)c1ccc(NS(=O)(=O)CCO)cc1N1CCC2(CC1)CC2 [Example 43, N-(1-(4,4-difluoropiperidin-1-yl)-8-oxo-5,6,7,8-tetrahydro-2,7-naphthyridin-3-yl)-4-(2-hydroxyethylsulfonamido)-2-(6-azaspiro[2.5]octan-6-yl)benzamide]"
7.41,7.92,7.85,"O=C(Nc1cc2cccnc2c(N2CCC(F)(F)CC2)n1)c1c(F)cc(NS(=O)(=O)CCO)cc1N1CCC2(CC1)CC2 [Example 46, N-(8-(4,4-difluoropiperidin-1-yl)-1,7-naphthyridin-6-yl)-2-fluoro-4-((2-hydroxyethyl)sulfonamido)-6-(6-azaspiro[2.5]octan-6-yl)benzamide]"

# Further lines, the compound ahead of its results:
SMILES,pIC50 [1],pIC50 (OVCAR3 cells),pIC50 (HT29 cells)
"O=C(Nc1cc2ccoc2c(N2CCC(F)(F)CC2)n1)c1ccc(NS(=O)(=O)CCO)cc1N1CCC2(CC1)CC2 [Example 29, N-(7-(4,4-difluoropiperidin-1-yl)furo[2,3-c]pyridin-5-yl)-4-(2-hydroxyethylsulfonamido)-2-(6-azaspiro[2.5]octan-6-yl)benzamide]",7.55,7.89,7.96
"O=C(Nc1cc(N2CCC(F)(F)CC2)c2occc2c1)c1ccc(NS(=O)(=O)CCO)cc1N1CCC2(CC1)CC2 [Example 30, N-(7-(4,4-difluoropiperidin-1-yl)benzofuran-5-yl)-4-(2-hydroxyethylsulfonamido)-2-(6-azaspiro[2.5]octan-6-yl)benzamide]",7.57,8.15,8.00
"O=C(Nc1cc2occc2c(N2CCC(F)(F)CC2)n1)c1ccc(NS(=O)(=O)CCO)cc1N1CCC2(CC1)CC2 [Example 31, N-(4-(4,4-difluoropiperidin-1-yl)furo[3,2-c]pyridin-6-yl)-4-(2-hydroxyethylsulfonamido)-2-(6-azaspiro[2.5]octan-6-yl)benzamide]",7.15,8.10,8.05
"O=C(Nc1nc(N2CCC(F)(F)CC2)c2occc2n1)c1ccc(NS(=O)(=O)CCO)cc1N1CCC2(CC1)CC2 [Example 32, N-(4-(4,4-difluoropiperidin-1-yl)furo[3,2-d]pyrimidin-2-yl)-4-((2-hydroxyethyl)sulfanilamide)-2-(6-azaspiro[2.5]octan-6-yl)benzamide]",8.10,6.46,6.03
"Cn1cnc2c(N3CCC(F)(F)CC3)nc(NC(=O)c3ccc(NS(=O)(=O)CCO)cc3N3CCC4(CC3)CC4)cc21 [Example 35, N-(4-(4,4-difluoropiperidin-1-yl)-1-methyl-1H-imidazolo[4,5-c]pyridin-6-yl)-4-((2-hydroxyethyl)sulfonamido)-2-(6-azaspiro[2.5]octan-6-yl)benzamide]",7.54,7.57,7.24
Cn1ccc2cc(NC(=O)c3ccc(NS(=O)(=O)CCO)cc3N3CCC4(CC3)CC4)nc(N3CCC(F)(F)CC3)c21 [Example 37],6.92,6.92,7.60
"O=C(Nc1cc(N2CCC(F)(F)CC2)c2nsnc2c1)c1ccc(NS(=O)(=O)CCO)cc1N1CCC2(CC1)CC2 [Example 40, 2-(6-Azaspiro[2.5]oct-6-yl)-4-(2-hydroxyethylsulfonyl)aminophenyl)-N-[4-(4,4-difluoropiperidinyl)benzo[3,4-c]1,2,5-thiadiazole-5-ylcarboxamide]",7.49,7.92,8.00
"O=C(Nc1cc(N2CCC(F)(F)CC2)c2ncsc2c1)c1ccc(NS(=O)(=O)CCO)cc1N1CCC2(CC1)CC2 [Example 41, 2-{6-Azaspiro[2.5]octan-6-yl}-N-[4-(4,4-difluoropiperidin-1-yl)-1,3-benzothiazol-6-yl]-4-(2-hydroxyethanesulfonamido) benzamide]",7.42,8.40,8.40
O=C(Nc1cc2cccnc2c(N2CCC(F)(F)CC2)n1)c1ccc(NS(=O)(=O)CCO)cc1N1CCC2(CC1)CC2 [Example 44],6.98,7.68,7.59
"O=C(Nc1cc2cccnc2c(N2CCC(F)(F)CC2)n1)c1cc(F)c(NS(=O)(=O)CCO)cc1N1CCC2(CC1)CC2 [Example 45, N-(8-(4,4-difluoropiperidin-1-yl)-1,7-naphthyridin-6-yl)-5-fluoro-4-((2-hydroxyethyl)sulfonamide)-2-(6-azaspiro[2.5]octan-6-yl)benzamide]",7.55,7.74,7.51
C[C@@H]1CN(c2nc(NC(=O)c3ccc(NS(=O)(=O)CCO)cc3N3CCC4(CC3)CC4)cc3cccnc23)CCO1 [Example 47],7.41,7.32,7.40
CN1CCN(c2nc(NC(=O)c3ccc(NS(=O)(=O)CCO)cc3N3CCC4(CC3)CC4)cc3cccnc23)CC1 [Example 48],6.97,6.63,6.44
"O=C(Nc1cc2cccnc2c(N2CCN(CC(F)(F)F)CC2)n1)c1ccc(NS(=O)(=O)CCO)cc1N1CCC2(CC1)CC2 [Example 49, 4-(2-hydroxyethylsulfonamido)-2-(6-azaspiro[2.5]octan-6-yl)-N-(8-(4-(2,2,2-trifluoroethyl)piperazin-1-yl)-1,7-naphthyridin-6-yl)benzamide]",5.91,5.87,5.85
